{
  "source": "paper PMC5483587",
  "about": "(Frontiers in Microbiology, 2017)",
  "tested_on": "T1, LkAlt1",
  "T1 construct": "ORF amplified from genomic DNA into pET-28a(+) (NheI/XhoI), His-tagged, E. coli Rosetta2(DE3), Ni-NTA; tag removal not mentioned; about 50 kDa on SDS-PAGE",
  "test": "initial velocities at […] nm (lactate dehydrogenase/NADH coupled), global ping-pong fit",
  "assay_type": "biochemical, Lachancea kluyveri",
  "conditions": "alanine varied 1-20 mM, α-ketoglutarate 0.05-1.50 mM; Tris-HCl about pH 7, 25°C; pyridoxal 5'-phosphate; ka/kb assigned to substrates by concentration ranges and text",
  "data": [
    {"smiles": "C[C@H](N)C(=O)O", "note": "[alanine]", "values": [
      {"measurement": "ka", "value": 4.88, "unit": "mM"}
    ]},
    {"smiles": "O=C(O)CCC(=O)C(=O)O", "note": "[α-ketoglutarate]", "values": [
      {"measurement": "Km", "value": 220, "unit": "µM"}
    ]}
  ]
}
